From US9056875B2, “Substituted pyrazolo[3′,4′:4,5]thieno[2,3-C]pyridazin-3-amine analogs as positive allosteric modulators of the muscarinic acetylcholine receptor M4” (Vanderbilt University, priority 2012, dated 2015)
pEC50: −log10 of the molar value. Where two headings read alike, the source gives them in different places.

Biological target: T1, mAChR rM4 (Rattus norvegicus, UniProt P08485)
T1 construct: expressed in transfected cells
T1 sequence (P08485 1-478): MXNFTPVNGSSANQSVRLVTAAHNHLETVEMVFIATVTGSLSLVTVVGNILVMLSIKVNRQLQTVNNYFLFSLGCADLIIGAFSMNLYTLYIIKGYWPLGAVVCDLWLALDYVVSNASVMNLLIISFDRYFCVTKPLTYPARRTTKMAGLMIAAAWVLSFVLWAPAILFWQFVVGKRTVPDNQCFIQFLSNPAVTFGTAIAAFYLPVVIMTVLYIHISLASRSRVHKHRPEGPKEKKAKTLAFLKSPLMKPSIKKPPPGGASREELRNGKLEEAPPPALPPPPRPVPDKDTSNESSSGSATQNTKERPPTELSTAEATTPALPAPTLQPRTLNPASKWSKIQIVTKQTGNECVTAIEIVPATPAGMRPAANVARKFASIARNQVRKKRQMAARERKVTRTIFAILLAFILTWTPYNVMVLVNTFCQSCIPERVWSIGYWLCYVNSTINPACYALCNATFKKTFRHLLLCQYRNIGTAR
Assay: mAChR rM4 cell-based functional assay (calcium mobilization, potentiation of EC20 acetylcholine response)
Details: for Emax at 30 µM: %ACh maximum at 30 μM; for pEC50 / EC50: rM4-transfected CHO-K1 cells, positive allosteric modulation of EC20 ACh response; for pEC50: read-out: EC50; for EC50: read-out: pEC50 (converted)
Description: Chinese hamster ovary (CHO-K1) cells stably expressing rat (r)M1 were purchased from the American Type Culture Collection and cultured according to their indicated protocol. CHO cells stably expressing human (h)M2, hM3, and hM5 were described previously (Levey A I, et al., (1991) J Neurosci 11:3218-3226.); hM1 and hM4 cDNAs were purchased from Missouri S&T cDNA Resource; rM4 cDNA was provided by T. I. Bonner (National Institutes of Health, Bethesda, Md.). rM2 and rM3 were cloned from a rat brain cDNA library and sequence verified. hM1, rM2, rM3, hM4, and rM4 cDNAs were used to stably transfect CHO-K1 cells purchased from the American Type Culture Collection using Lipofectamine® 2000. To make stable rM2, hM2, rM3, hM4, and rM4 cell lines for use in calcium mobilization assays, these cells also were stably transfected with a chimeric G-protein (Gqi5) (provided by B. R. Conklin, University of California, San Francisco) using Lipofectamine® 2000. rM1, hM1, rM3, hM3, rM5, and hM5 cells were grown in Ham's F-12 medium containing 10% heat-inactivated fetal bovine serum (FBS), 20 mM HEPES, and 50 μg/mL G418 sulfate. rM2-Gqi5, hM2-Gqi5, and hM4-Gqi5 cells were grown in the same medium also containing 500 μg/mL hygromycin B. Stable rM4-Gqi5 cells were grown in DMEM containing 10% heat-inactivated FBS, 20 mM HEPES, 400 μg/mL G418 sulfate, and 500 μg/mL Hygromycin B.
For high throughput measurement of agonist-evoked increases in intracellular calcium, CHO-K1 cells stably expressing the target muscarinic receptor were plated in growth medium lacking G418 and hygromycin at 15,000 cells/20 μL/well in Greiner 384-well black-walled, tissue culture (TC)-treated, clear-bottom plates (VWR). Cells were incubated overnight at 37° C. and 5% CO2. The next day, cells were washed using an ELX 405 (BioTek) with four washes (80 μL) of assay buffer then aspirated to 20 μL. Next, 20 μL of 16 μM Fluo-4/acetoxymethyl ester (Invitrogen, Carlsbad, Calif.) prepared as a 2.3 mM stock in DMSO and mixed in a 1:1 ratio with 10% (w/v) Pluronic F-127 and diluted in assay buffer was added to the wells and the cell plates were incubated for […] at 37° C. and 5% CO2. Dye was removed by washing with the ELX 405 (four 80 μL washes of assay buffer) then aspirated to 20 μL. Compound master plates were formatted in an 11 point CRC format (1:3 dilutions) in 100% DMSO with a starting concentration of 10 mM using the BRAVO liquid handler (Agilent). Test compound CRCs were then transferred to daughter plates (240 nL) using the Echo acoustic plate reformatter (Labcyte, Sunnyvale, Calif.) and then diluted into assay buffer (40 μL) to a 2× stock using a Thermo Fisher Combi (Thermo Fisher Scientific, Waltham, Mass.).
Calcium flux was measured using the Functional Drug Screening System (FDSS) 6000 (Hamamatsu Corporation, Tokyo, Japan) as an increase in the fluorescent static ratio. Compounds were applied to cells (20 μL, 2×) using the automated system of the FDSS 6000 at 4 s into the 300 s protocol and the data were collected at 1 Hz. At 144 s into the 300 s protocol, 10 μL of an EC20 concentration of the muscarinic receptor agonist acetylcholine was added (5×), followed by the addition of 12 μL an EC80 concentration of acetylcholine at the 230 s time point (5×). Agonist activity was analyzed as a concentration-dependent increase in calcium mobilization upon compound addition. Positive allosteric modulator activity was analyzed as a concentration-dependent increase in the EC20 acetylcholine response. Antagonist activity was analyzed as a concentration-dependent decrease in the EC80 acetylcholine response. Concentration-response curves were generated using a four-parameter logistical equation in XLfit™ curve fitting software (IDBS, Bridgewater, N.J.) for Excel (Microsoft, Redmond, Wash.) or Prism (GraphPad Software, Inc., San Diego, Calif.). […]

| Compound | Emax at 30 µM [%] | pEC50 | EC50 [nM] |
| --- | --- | --- | --- |
| COc1ccc(CNc2nn(C)c3c2sc2nnc(C)c(C)c23)cc1 [Compound 1, N-(4-methoxybenzyl)-1,7,8-trimethyl-1H-pyrazolo[3′,4′:4,5]thieno[2,3-c]pyridazin-3-amine] | 55 | 7.32 | – |
| Cc1nnc2sc3c(NCc4ccc(S(C)(=O)=O)cc4)nn(C)c3c2c1C [Compound 2, 1,7,8-trimethyl-N-(4-(methylsulfonyl)benzyl)-1H-pyrazolo[3′,4′:4,5]thieno[2,3-c]pyridazin-3-amine] | 57 | 6.89 | – |
| Cc1nnc2sc3c(NCC4CC4)nn(C)c3c2c1C [Compound 3, N-(cyclopropylmethyl)-1,7,8-trimethyl-1H-pyrazolo[3′,4′:4,5]thieno[2,3-c]pyridazin-3-amine] | 46 | 6.47 | – |
| Cc1nnc2sc3c(NCc4ccco4)nn(C)c3c2c1C [Compound 4, N-(furan-2-ylmethyl)-1,7,8-trimethyl-1H-pyrazolo[3′,4′:4,5]thieno[2,3-c]pyridazin-3-amine] | 50 | 6.74 | – |
| Cc1nnc2sc3c(NCc4ccc(F)c(S(C)(=O)=O)c4)nn(C)c3c2c1C [Compound 5, N-(4-fluoro-3-(methylsulfonyl)benzyl)-1,7,8-trimethyl-1H-pyrazolo[3′,4′:4,5]thieno[2,3-c]pyridazin-3-amine] | 54 | – | 14.1 |
| Cc1nnc2sc3c(NC4CCSC4)nn(C)c3c2c1C (stereo not drawn) [Compound 6, 1,7,8-trimethyl-N-(tetrahydrothiophen-3-yl)-1H-pyrazolo[3′,4′:4,5]thieno[2,3-c]pyridazin-3-amine] | 56 | 7.01 | – |
| Cc1nnc2sc3c(NCc4ccoc4)nn(C)c3c2c1C [Compound 7, N-(furan-3-ylmethyl)-1,7,8-trimethyl-1H-pyrazolo[3′,4′:4,5]thieno[2,3-c]pyridazin-3-amine] | 60 | – | 38.9 |
| Cc1nnc2sc3c(NC4CCOC4)nn(C)c3c2c1C (stereo not drawn) [Compound 8, 1,7,8-trimethyl-N-(tetrahydrofuran-3-yl)-1H-pyrazolo[3′,4′:4,5]thieno[2,3-c]pyridazin-3-amine] | 55 | 6.40 | – |
| Cc1nnc2sc3c(NC4CN(C(=O)OC(C)(C)C)C4)nn(C)c3c2c1C [Compound 9, tert-butyl 3-((1,7,8-trimethyl-1H-pyrazolo[3′,4′:4,5]thieno[2,3-c]pyridazin-3-yl)amino)azetidine-1-carboxylate] | 58 | – | 25.1 |
| Cc1nnc2sc3c(NCc4cccs4)nn(C)c3c2c1C [Compound 10, 1,7,8-trimethyl-N-(thiophen-2-ylmethyl)-1H-pyrazolo[3′,4′:4,5]thieno[2,3-c]pyridazin-3-amine] | 53 | – | 30.9 |
| Cc1ncsc1CNc1nn(C)c2c1sc1nnc(C)c(C)c12 [Compound 11, 1,7,8-trimethyl-N-((4-methylthiazol-5-yl)methyl)-1H-pyrazolo[3′,4′:4,5]thieno[2,3-c]pyridazin-3-amine] | 56 | 7.26 | – |
| Cc1cc(CNc2nn(C)c3c2sc2nnc(C)c(C)c23)no1 [Compound 12, 1,7,8-trimethyl-N-((5-methylisoxazol-3-yl)methyl)-1H-pyrazolo[3′,4′:4,5]thieno[2,3-c]pyridazin-3-amine] | 55 | 6.30 | – |
| Cc1nnc2sc3c(NCc4ccc5c(c4)OCCO5)nn(C)c3c2c1C [Compound 13, N-((2,3-dihydrobenzo[b][1,4]dioxin-6-yl)methyl)-1,7,8-trimethyl-1H-pyrazolo[3′,4′:4,5]thieno[2,3-c]pyridazin-3-amine] | 55 | – | 12.9 |
| CC(=O)N1CC(Nc2nn(C)c3c2sc2nnc(C)c(C)c23)C1 [Compound 14, 1-(3-((1,7,8-trimethyl-1H-pyrazolo[3′,4′:4,5]thieno[2,3-c]pyridazin-3-yl)amino)azetidin-1-yl)ethanone] | 69 | 6.77 | – |
| Cc1nnc2sc3c(NC4CN(S(C)(=O)=O)C4)nn(C)c3c2c1C [Compound 15, 1,7,8-trimethyl-N-(1-(methylsulfonyl)azetidin-3-yl)-1H-pyrazolo[3′,4′:4,5]thieno[2,3-c]pyridazin-3-amine] | 64 | 7.20 | – |
| Cc1nnc2sc3c(NC4CNC4)nn(C)c3c2c1C [Compound 16, N-(azetidin-3-yl)-1,7,8-trimethyl-1H-pyrazolo[3′,4′:4,5]thieno[2,3-c]pyridazin-3-amine] | 51 | 5.85 | – |
| Cc1nnc2sc3c(NC4CCN(C(=O)OC(C)(C)C)CC4)nn(C)c3c2c1C [Compound 17, tert-butyl 4-((1,7,8-trimethyl-1H-pyrazolo[3′,4′:4,5]thieno[2,3-c]pyridazin-3-yl)amino)piperidine-1-carboxylate] | 47 | 6.68 | – |
| Cc1nnc2sc3c(NC4CCNCC4)nn(C)c3c2c1C [Compound 18, 1,7,8-trimethyl-N-(piperidin-4-yl)-1H-pyrazolo[3′,4′:4,5]thieno[2,3-c]pyridazin-3-amine] | 31 | 5.28 | – |
| Cc1nnc2sc3c(NC4CCN(S(C)(=O)=O)CC4)nn(C)c3c2c1C [Compound 19, 1,7,8-trimethyl-N-(1-(methylsulfonyl)piperidin-4-yl)-1H-pyrazolo[3′,4′:4,5]thieno[2,3-c]pyridazin-3-amine] | 58 | 5.96 | – |
| CC(=O)N1CCC(Nc2nn(C)c3c2sc2nnc(C)c(C)c23)CC1 [Compound 20, 1-(4-((1,7,8-trimethyl-1H-pyrazolo[3′,4′:4,5]thieno[2,3-c]pyridazin-3-yl)amino)piperidin-1-yl)ethanone] | 51 | 5.74 | – |
| Cc1nnc2sc3c(NCC4CCN(C(=O)OC(C)(C)C)CC4)nn(C)c3c2c1C [Compound 21, tert-butyl 4-(((1,7,8-trimethyl-1H-pyrazolo[3′,4′:4,5]thieno[2,3-c]pyridazin-3-yl)amino)methyl)piperidine-1-carboxylate] | 42 | 6.15 | – |
| Cc1nnc2sc3c(NCC4CCNCC4)nn(C)c3c2c1C [Compound 22, 1,7,8-trimethyl-N-(piperidin-4-ylmethyl)-1H-pyrazolo[3′,4′:4,5]thieno[2,3-c]pyridazin-3-amine] | – | < 5.00 | – |
| CC(=O)N1CCC(CNc2nn(C)c3c2sc2nnc(C)c(C)c23)CC1 [Compound 23, 1-(4-(((1,7,8-trimethyl-1H-pyrazolo[3′,4′:4,5]thieno[2,3-c]pyridazin-3-yl)amino)methyl)piperidin-1-yl)ethanone] | 44 | 5.74 | – |
